Data reported in patent US9347934B2, “Assays for identifying compounds that modulate bitter taste” (CHROMOCELL CORPORATION, priority 2011, dated 2016).

Assays:
[1] = test system: panel of twenty-five bitter taste receptor expressing cell lines; assay: Panel of twenty-five bitter receptor expressing cell lines exposed to 20 mM tastant; type: cell-based, human; details: the remaining nineteen (KCl) or eighteen receptors
Experimental: (§1) Accordingly, each cell line of the panel expressed a human bitter taste receptor and mouse Gα15 signaling protein.
(§2) Probenecid was not included in the load solution.
(§3) After dye loading, cell plates were placed in a fluorescent plate reader (e.g., FDSS6000 (Hamamatsu, Japan)) and receptor stimulation was measured by adding 50 ul of 3× concentrated ligand/agonist stock. Fluorescence was monitored continuously for 10 s before agonist addition and for 100-250 s after stimulation with agonist.
(§4) Receptor Activation is defined as follows: % Activation=[((Maximum signal fluorescence−Minimum signal fluorescence)−(Maximum control fluorescence−Minimum control fluorescence))/(Maximum buffer fluorescence−Minimum buffer fluorescence)]*100 Functional Response=[(Maximum signal fluorescence−Minimum signal fluorescence)−(Maximum control fluorescence−Minimum control fluorescence)] • Signal Fluorescence: refers to the change in fluorescence seen with addition of ligand • Control fluorescence: refers to the change in fluorescence seen with addition of buffer (negative control) • Calcium signals from ligand and control were normalized to the basal fluorescence of the cells prior to the stimulation.

[2] = target: T1, TAS2R16 (Homo sapiens, UniProt Q9NYV7); assay: Calcium fluorescence functional assay, TAS2R16 cell line; type: cell-based; details: 20 mM tastant; cell line expressing human TAS2R16 and mouse Gα15
T1 construct: expressed in transfected cells
T1 sequence (Q9NYV7 1-291): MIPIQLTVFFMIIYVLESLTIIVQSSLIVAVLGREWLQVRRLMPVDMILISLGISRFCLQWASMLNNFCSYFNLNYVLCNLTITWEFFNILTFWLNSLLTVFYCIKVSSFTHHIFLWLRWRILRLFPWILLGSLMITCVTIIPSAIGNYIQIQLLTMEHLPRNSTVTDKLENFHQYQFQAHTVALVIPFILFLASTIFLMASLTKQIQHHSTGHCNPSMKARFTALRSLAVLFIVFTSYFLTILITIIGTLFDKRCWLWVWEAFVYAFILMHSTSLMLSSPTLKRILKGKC
Experimental: as §1, §2, §3, §4
(§5) A concentration analysis was performed and EC50 values were calculated by nonlinear regression using the formula: Y=Bottom+(Top-Bottom)/(1+10^((Log EC50-X)*Hill Slope)), X=log of dose or concentration, Y=Response (increasing as X increases), Top=maximum signal, Bottom=minimum signal.

[3] = target: T2, TAS2R3 (Homo sapiens, UniProt Q9NYW6); assay: Calcium fluorescence functional assay, TAS2R3 cell line; type: cell-based; details: 20 mM tastant; cell line expressing human TAS2R3 and mouse Gα15
T2 construct: expressed in transfected cells
T2 sequence (Q9NYW6 1-316): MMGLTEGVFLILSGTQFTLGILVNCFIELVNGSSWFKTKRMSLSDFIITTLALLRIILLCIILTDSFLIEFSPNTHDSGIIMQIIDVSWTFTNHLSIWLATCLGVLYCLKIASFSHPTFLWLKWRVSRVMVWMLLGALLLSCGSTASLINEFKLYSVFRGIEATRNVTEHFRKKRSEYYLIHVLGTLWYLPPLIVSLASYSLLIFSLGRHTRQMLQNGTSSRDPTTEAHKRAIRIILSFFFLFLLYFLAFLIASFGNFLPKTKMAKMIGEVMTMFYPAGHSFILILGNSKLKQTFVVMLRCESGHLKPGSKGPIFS
Experimental: as §1, §2, §3, §4, §5

[4] = target: T3, TAS2R1 (Homo sapiens, UniProt Q9NYW7); assay: Calcium fluorescence functional assay, TAS2R1 cell line; type: cell-based; details: 20 mM tastant; cell line expressing human TAS2R1 and mouse Gα15
T3 construct: expressed in transfected cells
T3 sequence (Q9NYW7 1-299): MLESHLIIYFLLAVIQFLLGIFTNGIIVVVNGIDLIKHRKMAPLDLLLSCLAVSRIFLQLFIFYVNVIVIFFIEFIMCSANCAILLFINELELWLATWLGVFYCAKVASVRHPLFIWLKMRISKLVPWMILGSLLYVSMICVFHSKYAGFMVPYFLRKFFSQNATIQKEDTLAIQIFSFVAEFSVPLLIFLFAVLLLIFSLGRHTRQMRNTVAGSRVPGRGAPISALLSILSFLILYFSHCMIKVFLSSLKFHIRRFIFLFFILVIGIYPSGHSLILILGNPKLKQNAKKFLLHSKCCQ
Experimental: as §1, §2, §3, §4, §5

[5] = target: T4, TAS2R4 (Homo sapiens, UniProt Q9NYW5); assay: Calcium fluorescence functional assay, TAS2R4 cell line; type: cell-based; details: for TAS2R4 bitter taste receptor activity (changes in intracellular calcium): 20 mM tastant, cell line expressing human TAS2R4 and mouse Gα15
T4 construct: expressed in transfected cells
T4 sequence (Q9NYW5 1-299): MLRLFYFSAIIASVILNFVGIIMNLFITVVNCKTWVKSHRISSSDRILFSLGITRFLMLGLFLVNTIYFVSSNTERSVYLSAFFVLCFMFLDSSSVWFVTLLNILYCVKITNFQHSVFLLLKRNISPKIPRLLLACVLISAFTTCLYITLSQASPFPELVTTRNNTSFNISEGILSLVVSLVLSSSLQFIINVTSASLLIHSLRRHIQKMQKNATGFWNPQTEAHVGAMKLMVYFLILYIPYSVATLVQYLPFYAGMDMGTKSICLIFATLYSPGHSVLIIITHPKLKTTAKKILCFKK
Experimental: as §1, §2, §3, §4, §5

[6] = target: T5, TAS2R14 (Homo sapiens, UniProt Q9NYV8); assay: Calcium fluorescence functional assay, TAS2R14 cell line; type: cell-based; details: for TAS2R14 bitter taste receptor activity (changes in intracellular calcium): 20 mM tastant, cell line expressing human TAS2R14 and mouse Gα15
T5 construct: expressed in transfected cells
T5 sequence (Q9NYV8 1-317): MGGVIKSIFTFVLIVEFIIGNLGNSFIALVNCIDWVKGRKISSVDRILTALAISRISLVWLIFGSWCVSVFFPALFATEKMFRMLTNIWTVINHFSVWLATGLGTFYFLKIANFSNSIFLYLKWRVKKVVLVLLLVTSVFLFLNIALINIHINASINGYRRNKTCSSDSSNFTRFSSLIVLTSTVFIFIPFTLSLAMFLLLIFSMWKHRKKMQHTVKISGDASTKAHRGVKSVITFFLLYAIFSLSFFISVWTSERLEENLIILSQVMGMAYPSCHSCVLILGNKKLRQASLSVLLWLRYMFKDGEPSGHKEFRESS
Experimental: as §1, §2, §3, §4, §5

[7] = target: T6, TAS2R49 (Homo sapiens, UniProt P59543); assay: Calcium fluorescence functional assay, TAS2R49 cell line; type: cell-based; details: 20 mM tastant; cell line expressing human TAS2R49 and mouse Gα15
T6 construct: expressed in transfected cells
T6 sequence (P59543 1-309): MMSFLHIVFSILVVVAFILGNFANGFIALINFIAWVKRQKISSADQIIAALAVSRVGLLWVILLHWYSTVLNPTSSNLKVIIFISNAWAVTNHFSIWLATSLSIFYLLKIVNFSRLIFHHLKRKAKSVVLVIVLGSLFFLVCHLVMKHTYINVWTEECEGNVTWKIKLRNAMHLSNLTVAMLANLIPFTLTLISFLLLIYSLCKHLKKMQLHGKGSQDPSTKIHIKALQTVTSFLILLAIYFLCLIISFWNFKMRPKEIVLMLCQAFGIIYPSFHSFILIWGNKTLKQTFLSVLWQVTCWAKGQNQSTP
Experimental: as §1, §2, §3, §4, §5

SMILES | functional response of the remaining (non-responding) receptors of the panel, threshold [1] | TAS2R16 bitter taste receptor activity (changes in intracellular calcium) [2] | TAS2R3 bitter taste receptor activity (changes in intracellular calcium) [3] | TAS2R1 bitter taste receptor activity (changes in intracellular calcium) [4] | TAS2R4 bitter taste receptor activity (changes in intracellular calcium) [5] | TAS2R14 bitter taste receptor activity (changes in intracellular calcium) [6] | TAS2R49 bitter taste receptor activity (changes in intracellular calcium) [7] | EC50 ([5]; increasing concentrations of KCl, TAS2R4 cell line (FIG. 3), read-out: EC50 value, activation of TAS2R4) | EC50 ([6]; increasing concentrations of KCl, TAS2R14 cell line (FIG. 3), read-out: EC50 value, activation of TAS2R14)
CC1=CC(=O)NS(=O)(=O)O1 [Acesulfame K] | ≤ 40% | induced | did not induce | induced | induced | induced | did not induce | – | –
[Cl-].[K+] [KCl, potassium chloride] | ≤ 40% | did not induce | did not induce | did not induce | induced | induced | did not induce | 5 to 15 mM | 5 to 15 mM
CC(O)C(=O)[O-].[K+] (centres unmarked) [Potassium lactate, potassium lactate] | ≤ 40% | did not induce | did not induce | did not induce | induced | induced | did not induce | – | –
